In patent US6624192B1, “Process for production of diacetylrhein” (Madaus AG, priority 1991, dated 2003):

Tests used:
[1] = system: gastric mucosa; experiment: Gastric mucosa changes in the rat; type: in vivo
[2] = in vivo; settings: rat, mouse, cat
[3] = system: coxarthrosis and gonarthrosis; experiment: Clinical double-blind study against naproxen with placebo after-treatment; type: in vivo, patients; settings: for Improvement in all test parameters (pain and movement symptoms, functional limitation, compatibility) in comparison with the initial values: 60 days
Method: 1. The action of diacetylrhein was investigated in coxarthrosis and gonarthrosis in 95 (49/46) patients in a double-blind study against naproxen and subsequent placebo after-treatment. The dosage administered was 50 mg of diacetylrhein twice daily or 750 mg of naproxen daily. The period of treatment was 60 days after a 7 day wash-out phase. The subsequent placebo treatment extended over 60 days.
Test parameters were the pain and movement symptoms according to a score scale, functional limitation and compatibility.

[4] = system: osteoarthrosis of the spine and of the knee; experiment: Clinical open study with physiotherapy control; type: in vivo, patients
Method: 2. In an open running study with control, there was investigated the action of diacetylrhein against osteoarthrosis of the spine and of the knee in 70 patients (35/35). The dosage administered was 100 mg of diacetylrhein per day. The period of treatment was 60 days and the period of observation was 75 days. The test parameters were pain and movement limitation. The parameters were evaluated according to a score system. The control group comprised 35 patients in the case of which exclusively physiotherapeutic measures were carried out. Physiotherapy was also carried out in the diacetylrhein treatment group.

[5] = system: osteoarthrosis; experiment: Clinical randomised double blind compatibility study (oesophagogastroduodenoscopic findings); type: in vivo, patients; settings: after 4 weeks
Method: 4. The action of diacetylrhein was investigated in 23 patients (12/11) with osteoarthrosis in a randomised double blind study using the “double dummy technique” (compatibility study). The dosage administered was 50 mg of diacetylrhein twice daily and 250 mg of naproxen three times daily. The period of treatment was 4 weeks. The test parameters were the oesophagogastroduodenoscopic findings before and after the therapy. Only patients with normal mucosal findings or with slight mucosal lesions (grade 1) were used in the study.

[6] = system: localised arthrosis; experiment: Clinical single blind crossover study against naproxen; type: in vivo, patients
Method: 3. The action of diacetylrhein in the case of localised arthrosis in 20 patients was investigated in a single blind crossover study against naproxen. […] Subsequently, there followed a three day wash-out phase and a further treatment with 250 mg of naproxen twice daily for a further 20 days. In the second group, the reverse sequence was used. The period of treatment was, in all, 43 days. The test parameters of pain, compression pain, passive movement pain, functional limitation and swelling were determined according to a score system.

[7] = system: cotton pellet granuloma; experiment: Cotton pellet granuloma in rats; type: in vivo, rat
Method: The effectiveness of diacetylrhein was determined in chronic inflammation models after oral administration. The following experimental models were used: cotton pellet granuloma in rats and arthrosis in rabbits induced by the intraarticular administration of vitamin A. a) Cotton pellet granuloma in rats. Young sexually mature rats (n=10) were given 25, 50 or 100 mg diacetylrhein/kg or 5 mg indomethacin/kg or 100 mg acetylsalicylic acid/kg daily for 5 days. A control group only treated with water was also used. Implantation of the pellets took place on the first day of treatment.

[8] = system: arthrosis induced by the intraarticular administration of vitamin A; experiment: Vitamin A arthrosis in rabbits; type: in vivo, rabbit; settings: for Clinical signs of arthrosis (disturbances of movement): 7 rabbits
Method: The effectiveness of diacetylrhein was determined in chronic inflammation models after oral administration. The following experimental models were used: cotton pellet granuloma in rats and arthrosis in rabbits induced by the intraarticular administration of vitamin A. b) Vitamin A arthrosis. An arthrosis-like joint change was initiated in two groups each of 10 rabbits (white New Zealanders) by means of three intraarticular injections of 30,000 IU of Vitamin A over the course of 9 days. 56 days later, 10 animals were treated with 3 mg of diacetylrhein/kg/day for 8 weeks. […] Furthermore, the curative action of diacetylrhein was compared with that of acetylsalicylic acid on each of 7 rabbits which, after 6 days pre-treatment with three times 10,000 IU Vitamin A and a 26 day treatment-free interval for 8 weeks, received either 5 mg of diacetylrhein/kg/day (experimental group) or 15 mg of acetylsalicylic acid/kg/day (positive control group) or remained untreated (negative control group). […] In the negative control group, during the following 8 weeks, the clinical signs of a manifest arthrosis increased.

[9] = crossover study, 43 days in all

Compound: COc1ccc2c(c1)c(CC(=O)O)c(C)n2C(=O)c1ccc(Cl)cc1 [indomethacin]
- Mucosal damage ([1]; in vivo, 10 mg/kg): certainly did
- Diameter of the erosions ([1]; in vivo, 10 mg/kg, 3 days): 1 to 3 mm
- Erosions of the gastric mucosa ([1]; in vivo, 20 mg/kg): distinct mucosal damages

Compound: CC(C)Cc1ccc(C(C)C(=O)O)cc1 (stereo not shown) [ibuprofen]
- Erosions of the gastric mucosa ([1]; in vivo, 200 mg/kg): distinct mucosal damages

Compound: CC(=O)Oc1cccc2c1C(=O)c1c(OC(C)=O)cc(C(=O)O)cc1C2=O [diacetylrhein, Diacetylrhein]
- LD50 [2]: 119 to 339 mg/kg
- LD50 ([2]; po): 1900 to 7900 mg/kg
- Erosions of the gastric mucosa ([1]; single administration of 400 mg/kg): did not give rise to any erosions
- Mucosal damage ([1]; twice daily 100 mg/kg over 3 days): did not initiate any mucosal damage
- Improvement in all test parameters (pain and movement symptoms, functional limitation, compatibility) in comparison with the initial values ([3]; 50 mg twice daily, P<0.01): statistically significant rate of improvement
- Night pain and pressure pain after discontinuation, in comparison with the naproxen/placebo collective ([3]; 30 days after discontinuation, 5% level): difference was also verified
- Spontaneous pain and active and passive movement pain after discontinuation, in comparison with the naproxen/placebo collective ([3]; days 90 and 120, placebo after-treatment, P<0.01): statistically significant superiority
- Effect after discontinuation of the treatment ([4]; 100 mg per day for 60 days, observation 75 days): continuing therapeutic effect (hang-over effect)
- Pain and movement limitation (all parameters, score system) versus control group ([4]; 100 mg per day, 60 days, plus physiotherapy, control physiotherapy only): statistically significant superiority
- Patients with mucosal lesions of grade 2 (endoscopic findings) ([5]; 50 mg twice daily, one case): 10%
- Pain, compression pain, passive movement pain, functional limitation and swelling (score system) in comparison with naproxen ([6]; 50 mg twice daily for 20 days vs 250 mg naproxen twice daily for 20 days, crossover): superiority
- Clinical laboratory parameters [6, 9]: no changes
- Side effects [6, 9]: No noteworthy side effects
- Fresh and dry weights of the granuloma ([7]; rats n=10, oral, 25, 50 or 100 mg/kg daily for 5 days, in comparison with the control group): significant and clearly dosage-dependent reduction
- Weights of the thymus and adrenals ([7]; rats, during the 5 days treatment): did not change
- Action on granuloma compared with reference drugs ([7]; rats, oral, 100 mg diacetylrhein/kg daily for 5 days vs 5 mg indomethacin/kg or 100 mg acetylsalicylic acid/kg): corresponded to about the action of 5 mg indomethacin or of 100 mg acetylsalicylic acid
- Clinical signs of arthrosis (disturbances of movement) ([8]; 5 mg/kg/day for 8 weeks, curative): improved significantly
- Macroscopically and microscopically recognisable joint changes ([8]; rabbits, 3 mg/kg/day for 8 weeks, in comparison with the control group): significantly reduced

Compound: COc1ccc2cc([C@H](C)C(=O)O)ccc2c1 [naproxen, reference compound]
- Improvement in all test parameters (pain and movement symptoms, functional limitation, compatibility) in comparison with the initial values ([3]; 750 mg daily, P<0.05): statistically significant rate of improvement
- Patients with mucosal lesions of grade 2, 3 and 4 (endoscopic findings) ([5]; 250 mg three times daily, 5 patients): 50%

Compound: CC(=O)Oc1ccccc1C(=O)O [acetylsalicylic acid, reference compound]
- Clinical signs of arthrosis (disturbances of movement) ([8]; 15 mg/kg/day for 8 weeks, positive control group): improved significantly
